{"source": "patent US10150734B2", "about": "“Solid forms of 2-(5-(3-fluorophenyl)-3-hydroxypicolinamido)acetic acid, compositions, and uses thereof” (Akebia Therapeutics, Inc., priority 2015, dated 2018)", "test": "Competitive slurry experiment of Forms A to H", "type": "physicochemical", "conditions": "IPAc/Heptane or toluene, RT", "protocol": "Approximately 2 to 3 mg of materials from Forms A to H were weighed into a 20.0 mL clear vial equipped with magnetic stir bars (Table 13). IPAc/Heptane (1:2 V/V) and toluene were used as the solvent systems for these competitive slurry experiments. Two selected solvents, 1.0 mL, were added to achieve free-flowing slurry and allowed to equilibrate at room temperature. All slurries will be isolated via centrifuge filtration after one day and seven days of equilibration."}
{"smiles": "O=C(O)CNC(=O)c1ncc(-c2cccc(F)c2)cc1O", "note": "[Form B, 2-(5-(3-fluorophenyl)-3-hydroxypicolinamido)acetic acid]", "values": [{"measurement": "Outcome in the competitive slurry experiment (in words)", "value": "converted to Form A"}]}
